In brackets after ≈: the same amount, converted by molar mass. Like-named read-outs stand apart in the source and are kept apart here.
How the values were obtained:
Candida albicans A9540 = assay: In vivo activity against Candida albicans A9540 infection in mice; set-up: species or system male ICR mice; details: for ED50: Candida albicans, read-out: PD50 (dose that protects 50% of the animals from infection)
Procedure: In vivo activity of compounds of the present invention was tested against Candida albicans A9540 infection in mice. Test organisms were cultured for 18 hours at 28° C. in YGP medium (yeast extract, glucose, peptone, K2 HPO4, MgSO4) and then suspended in saline. Male ICR mice weighing 20 to 24 g were infected intravenously with about 10 times the median lethal dose of the test fungus. The antibiotic at various dose levels was administered to groups of 5 mice each intravenously just after the fungal infection. The dose that protects 50% of the animals from infection (PD50, mg/kg) was calculated from survival rates recorded on the 20th day after the fungal challenge. All control animals died within 7 to 15 days after infection. The PD50 for compounds of Examples 5, 7, and 8 are 14 mg/kg (toxic), 11 mg/kg, and 3.5 mg/kg, respectively.

[1] = Solubility in phosphate-buffered saline solutions, PBS(-) and PBS(+); type: physicochemical
Procedure: The solubility of the various antibiotics was determined in phosphate-buffered saline (PBS) solutions and the data obtained are shown below. PBS(-) refers to a solution containing for each liter 0.2 g KCl, 0.2 g KH2 PO4, 8 g NaCl, and 1.15 g Na2 HPO4; PBS(+) contains additionally 100 mg MgCl2.6H2 O and 100 mg CaCl2.

Solubility in water = type: physicochemical; details: in words
[2] = A9540, 480 h, intravenous just after infection, survival on 20th day
[3] = pbs(+) with mgcl2, PBS(+), containing additionally MgCl2 and CaCl2, read-out: Solubility

| Structure (SMILES) | solubility [1, 3] [µg/mL] | solubility ([1]; pbs(-), read-out: Solubility) [µg/mL] | also measured |
| --- | --- | --- | --- |
| COc1cc(O)c2c(c1)C(=O)c1c(cc3c(c1O)-c1c(cc(C)c(C(=O)NCC(=O)O)c1O)[C@H](O[C@@H]1O[C@H](C)[C@H](N(C)C)[C@H](O[C@@H]4OC[C@@H](O)[C@H](O)[C@H]4O)[C@H]1O)[C@H]3O)C2=O [Example 7, N,N-dimethyl BU-3608 E] | > 2000 | 1800 (≈ 2140 µM) | ED50 (Candida albicans A9540; [2]): 11 mg/kg |
| COc1cc(O)c2c(c1)C(=O)c1c(cc3c(c1O)-c1c(cc(C)c(C(=O)N[C@H](C)C(=O)O)c1O)[C@H](O[C@@H]1O[C@H](C)[C@H](N(C)C)[C@H](O)[C@H]1O)[C@H]3O)C2=O [Example 5, N-methyl BU-3608 B] | – | – | ED50 (Candida albicans A9540; A9540, iv, 480 h): 14 mg/kg; toxicity remark at PD50 (Candida albicans A9540; intravenous, at 14 mg/kg, mice): toxic; solubility ([1]; pbs(+) with mgcl2, cacl2): 42 µg/mL (≈ 58.1 µM); solubility ([1]; pbs(-)): 330 µg/mL (≈ 457 µM) |
| CN[C@@H]1[C@H](O[C@@H]2OC[C@@H](O)[C@H](O)[C@H]2O)[C@@H](O)[C@H](O[C@H]2c3cc(C)c(C(=O)N[C@H](C)C(=O)O)c(O)c3-c3c(cc4c(c3O)C(=O)c3cc(OC)cc(O)c3C4=O)[C@@H]2O)O[C@@H]1C [BU-3608] | 9 to 23 (≈ 10.7 to 27.4 µM) | 16 to 18 (≈ 19 to 21.4 µM) | solubility in water (Solubility in water): very limited |
| COc1cc(O)c2c(c1)C(=O)c1c(cc3c(c1O)-c1c(cc(C)c(C(=O)NCC(=O)O)c1O)[C@H](O[C@@H]1O[C@H](C)[C@H](N(C)C)[C@H](O)[C@H]1O)[C@H]3O)C2=O [Example 6, N,N-dimethyl desxylosyl BU-3608 E] | – | – | solubility ([1]; pbs(+) with mgcl2, cacl2): 122 µg/mL (≈ 172 µM); solubility ([1]; pbs(-)): > 2100 µg/mL |
| COc1cc(O)c2c(c1)C(=O)c1c(cc3c(c1O)-c1c(cc(C)c(C(=O)N[C@H](C)C(=O)O)c1O)[C@H](O[C@@H]1O[C@H](C)[C@H](N(C)C)[C@H](O[C@@H]4OC[C@@H](O)[C@H](O)[C@H]4O)[C@H]1O)[C@H]3O)C2=O [Example 8, N-methyl BU-3608] | 3 (≈ 3.51 µM) | 3100 (≈ 3630 µM) | ED50 (Candida albicans A9540; [2]): 3.5 mg/kg |
| COc1cc(O)c2c(c1)C(=O)c1c(cc3c(c1O)-c1c(cc(C)c(C(=O)N[C@H](C)C(=O)O)c1O)[C@H](O[C@@H]1O[C@H](C)[C@H]([N+](C)(C)C)[C@H](O[C@@H]4OC[C@@H](O)[C@H](O)[C@H]4O)[C@H]1O)[C@H]3O)C2=O [Example 10, quaternary ammonium derivative of BU-3608] | – | > 2700 | – |
| CCCN(C)[C@@H]1[C@H](O[C@@H]2OC[C@@H](O)[C@H](O)[C@H]2O)[C@@H](O)[C@H](O[C@H]2c3cc(C)c(C(=O)N[C@H](C)C(=O)O)c(O)c3-c3c(cc4c(c3O)C(=O)c3cc(OC)cc(O)c3C4=O)[C@@H]2O)O[C@@H]1C [Example 9, N-propyl BU-3608] | 32 (≈ 36.2 µM) | 73 (≈ 82.7 µM) | – |
